# Source: ChEMBL document CHEMBL5543151, “Rational Design of a Novel Class of Human ClpP Agonists through a Ring-Opening Strategy with Enhanced Antileukemia Activity” (J Med Chem, 2024)
# pEC50, pIC50: −log10 of the molar value.
# Experiments:
# THP-1 = assay: Anti-leukemia activity against human THP-1 cells assessed as decrease in cell proliferation incubated for 72 hrs by CCK-8 assay; assay type: functional, cell-based; settings: THP-1, 72 h
# MV4-11 [1] = assay: Potency index, ratio of ONC201 IC50 to test compound IC50 for anti-leukemia activity against human MV4-11 cells assessed as decrease in cell proliferation incubated for 72 hrs by CCK-8 assay; assay type: functional
# Kasumi 1 = assay: Anti-leukemia activity against human Kasumi 1 cells assessed as decrease in cell proliferation incubated for 72 hrs by CCK-8 assay; assay type: functional, cell-based; settings: Kasumi 1, 72 h
# MOLM-13 = assay: Anti-leukemia activity against human MOLM-13 cells assessed as decrease in cell proliferation incubated for 72 hrs by CCK-8 assay; assay type: functional, cell-based; settings: MOLM-13, 72 h
# OCI-AML2 = assay: Anti-leukemia activity against human OCI-AML2 cells assessed as decrease in cell proliferation incubated for 72 hrs by CCK-8 assay; assay type: functional, cell-based; settings: OCI-AML2, 72 h
# U-937 = assay: Anti-leukemia activity against human U-937 cells assessed as decrease in cell proliferation incubated for 72 hrs by CCK-8 assay; assay type: functional, cell-based; settings: U-937, 72 h
# MV4-11 [2] = assay: Anti-leukemia activity against human MV4-11 cells assessed as decrease in cell proliferation incubated for 72 hrs by CCK-8 assay; assay type: functional, cell-based; settings: MV4-11, 72 h
# MV4-11 [3] = assay: Anti-leukemia activity against human MV4-11 cells assessed as decrease in cell proliferation incubated for 24 hrs by CCK-8 assay; assay type: functional, cell-based; settings: MV4-11, 24 h
# HL-60 = assay: Anti-leukemia activity against human HL-60 cells assessed as decrease in cell proliferation incubated for 72 hrs by CCK-8 assay; assay type: functional, cell-based; settings: HL-60, 72 h
# [4] = target: T1, ATP-dependent Clp protease proteolytic subunit, mitochondrial (Homo sapiens, UniProt Q16740); assay: Agonist activity at human Casein lysing protease P (HsClpP) assessed as proteolytic activity by measuring alpha-casein hydrolysis measured after 2 hrs incubation by fluorescence assay
# [5] = target: T1, ATP-dependent Clp protease proteolytic subunit, mitochondrial; assay: Binding affinity to human Casein lysing protease P (HsClpP) assessed as change in melting temperature measured after 2 hrs differential scanning fluorimetry (DSF) assay
# MV4-11 [6] = assay: Induction of apoptosis in human MV4-11 cells assessed as increase in apoptotic (annexin V-positive) cell proportions by measuring apoptotic rate at 120 nM measured after 48 hrs by Annexin V-647/P1 apoptosis detection assay relative to control; assay type: functional
# MV4-11 [7] = assay: Anti-leukemia activity against human MV4-11 cells assessed as decrease in cell proliferation incubated for 48 hrs by CCK-8 assay; assay type: functional, cell-based; settings: MV4-11, 48 h
# K562 = assay: Anti-leukemia activity against human K562 cells assessed as decrease in cell proliferation incubated for 72 hrs by CCK-8 assay; assay type: functional, cell-based; settings: K562, 72 h
# T1 sequence (Q16740 whole entry): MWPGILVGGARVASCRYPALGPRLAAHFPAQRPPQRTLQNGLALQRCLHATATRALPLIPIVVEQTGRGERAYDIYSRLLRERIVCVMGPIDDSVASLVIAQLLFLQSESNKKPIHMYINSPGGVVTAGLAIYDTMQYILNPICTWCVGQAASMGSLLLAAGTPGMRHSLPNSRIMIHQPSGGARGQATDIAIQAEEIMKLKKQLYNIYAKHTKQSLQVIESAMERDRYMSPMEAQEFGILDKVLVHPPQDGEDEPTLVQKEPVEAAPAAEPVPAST
compound,measurement,setting,value
N#Cc1cccc(CN2CCc3[nH]c(NCc4ccc(F)cc4)nc(=O)c3C2)c1,pIC50,THP-1,7.10
same,Ratio IC50,MV4-11 [1],20
same,pIC50,Kasumi 1,7.39
same,pIC50,MOLM-13,7.52
same,pIC50,OCI-AML2,7.41
same,pIC50,U-937,7.11
same,pIC50,MV4-11 [2],7.52
same,pEC50,MV4-11 [3],5.28
same,pIC50,HL-60,7.39
same,pEC50,[4],6.01
same,pEC50,[5],5.86
same,Activity,MV4-11 [6],~80%
same,pEC50,MV4-11 [7],7.11
same,pIC50,K562,6.88
